From US8614206B2 (Genentech, Inc., priority 2011, dated 2013)

biological target: PIM1 (Homo sapiens (Human), UniProt P11309); assay: Pim kinase inhibition, PIM1 LC3K (Example 901); type: biochemical; settings: not given
Sequence (P11309 whole entry): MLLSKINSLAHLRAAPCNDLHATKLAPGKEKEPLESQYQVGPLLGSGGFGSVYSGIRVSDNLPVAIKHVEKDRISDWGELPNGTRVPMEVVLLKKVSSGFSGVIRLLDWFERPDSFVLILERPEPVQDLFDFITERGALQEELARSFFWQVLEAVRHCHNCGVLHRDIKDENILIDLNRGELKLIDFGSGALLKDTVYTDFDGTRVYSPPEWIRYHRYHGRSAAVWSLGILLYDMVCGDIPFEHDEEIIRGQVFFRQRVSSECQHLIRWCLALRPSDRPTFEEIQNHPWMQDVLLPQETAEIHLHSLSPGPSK

Row | SMILES | Ki [nM]
1 | CCn1ncc(NC(=O)c2nc(-c3c(F)cccc3F)sc2N)c1N1CCC(N)C(F)CC1 (single isomer, unassigned) [Example 370, 5-amino-N-[5-(4-amino-5-fluoro-azepan-1-yl)-1-ethyl-pyrazol-4-yl]-2-(2,6-difluorophenyl)thiazole-4-carboxamide] | 0.093
2 | CCn1ncc(NC(=O)c2nc(-c3c(F)cccc3F)sc2N)c1N1CCC(N)C(OC)CC1 (single isomer, unassigned) [Example 390, 5-amino-N-[5-(4-amino-5-methoxy-azepan-1-yl)-1-ethyl-pyrazol-4-yl]-2-(2,6-difluorophenyl)thiazole-4-carboxamide] | 0.192
3 | Nc1sc(-c2c(F)cccc2F)nc1C(=O)Nc1cnn(CC(F)F)c1N1CCC(N)C(O)CC1 (single isomer, unassigned) [Example 398, 5-amino-N-[5-(4-amino-5-hydroxy-azepan-1-yl)-1-(2,2-difluoroethyl)pyrazol-4-yl]-2-(2,6-difluorophenyl)thiazole-4-carboxamide] | 0.142
4 | Nc1sc(-c2c(F)cccc2F)nc1C(=O)Nc1cnn(CC(F)F)c1N1CCC(N)C(O)CC1 (single isomer, unassigned) [Example 399, 5-amino-N-[5-(4-amino-5-hydroxy-azepan-1-yl)-1-(2,2-difluoroethyl)pyrazol-4-yl]-2-(2,6-difluorophenyl)thiazole-4-carboxamide] | 0.018
5 | CO[C@H]1CCN(c2c(NC(=O)c3nc(-c4c(F)cccc4F)sc3N)cnn2C2CC2)CC[C@@H]1N [Example 365, 5-amino-N-(5-((4S,5S)-4-amino-5-methoxyazepan-1-yl)-1-cyclopropyl-1H-pyrazol-4-yl)-2-(2,6-difluorophenyl)thiazole-4-carboxamide] | 0.219
6 | Cc1noc(C)c1-c1nc(C(=O)Nc2cnn(C)c2N2CCC[C@H](N)CC2)c(N)s1 [Example 421, 5-amino-N-[5-[(4S)-4-aminoazepan-1-yl]-1-methyl-pyrazol-4-yl]-2-(3,5-dimethylisoxazol-4-yl)thiazole-4-carboxamide] | 4.37
7 | COC1CCC2(c3c(NC(=O)c4nc(-c5ccccc5F)sc4N)cnn3C)CCC1N2 (stereo not drawn) [Example 423, 5-amino-2-(2-fluorophenyl)-N-[5-(2-methoxy-8-azabicyclo[3.2.1]octan-5-yl)-1-methyl-pyrazol-4-yl]thiazole-4-carboxamide] | 0.362
8 | COC1(C)CC(N)CCN(c2c(NC(=O)c3nc(-c4c(F)cncc4F)sc3N)cnn2C)C1 (stereo not drawn) [Example 474, 5-amino-N-[5-(5-amino-3-methoxy-3-methyl-azepan-1-yl)-1-methyl-pyrazol-4-yl]-2-(3,5-difluoro-4-pyridyl)thiazole-4-carboxamide] | 0.425
9 | COC1(C)CC(N)CCN(c2c(NC(=O)c3nc(-c4ccncc4F)sc3N)cnn2C)C1 (stereo not drawn) [Example 475, 5-amino-N-[5-(5-amino-3-methoxy-3-methyl-azepan-1-yl)-1-methyl-pyrazol-4-yl]-2-(3-fluoro-4-pyridyl)thiazole-4-carboxamide] | 0.212

Now from value to compound:

Row | Ki [nM] | SMILES
10 | 3.7 | COc1nccc(C)c1-c1nc(C(=O)Nc2cnn(C)c2N2CCC[C@H](N)CC2)c(N)s1 [Example 427, 5-amino-N-[5-[(4S)-4-aminoazepan-1-yl]-1-methyl-pyrazol-4-yl]-2-(2-methoxy-4-methyl-3-pyridyl)thiazole-4-carboxamide]
11 | 1.17 | Cc1ncccc1-c1nc(C(=O)Nc2cnn(C)c2N2CC[C@@H](N)[C@H](F)CC2)c(N)s1 [Example 430, 5-amino-N-[5-[(4R,5R)-4-amino-5-fluoro-azepan-1-yl]-1-methyl-pyrazol-4-yl]-2-(2-methyl-3-pyridyl)thiazole-4-carboxamide]
12 | 1.04 | Cc1cc(-c2nc(C(=O)Nc3cnn(C)c3N3CC[C@@H](N)[C@H](F)CC3)c(N)s2)ccn1 [Example 431, 5-amino-N-[5-[(4R,5R)-4-amino-5-fluoro-azepan-1-yl]-1-methyl-pyrazol-4-yl]-2-(2-methyl-4-pyridyl)thiazole-4-carboxamide]
13 | 0.477 | Cc1nn(C)cc1-c1nc(C(=O)Nc2cnn(C)c2N2CC[C@@H](N)[C@H](F)CC2)c(N)s1 [Example 437, 5-amino-N-[5-[(4R,5R)-4-amino-5-fluoro-azepan-1-yl]-1-methyl-pyrazol-4-yl]-2-(1,3-dimethylpyrazol-4-yl)thiazole-4-carboxamide]
14 | 1.08 | Cn1ncc(NC(=O)c2nc(-c3cc(C#N)ccc3F)sc2N)c1N1CC[C@@H](N)[C@H](F)CC1 [Example 442, 5-amino-N-[5-[(4R,5R)-4-amino-5-fluoro-azepan-1-yl]-1-methyl-pyrazol-4-yl]-2-(5-cyano-2-fluoro-phenyl)thiazole-4-carboxamide]
15 | 2.54 | Cc1cc(-c2nc(C(=O)Nc3cnn(C)c3N3CC[C@@H](N)[C@H](F)CC3)c(N)s2)cc(C)n1 [Example 443, 5-amino-N-[5-[(4R,5R)-4-amino-5-fluoro-azepan-1-yl]-1-methyl-pyrazol-4-yl]-2-(2,6-dimethyl-4-pyridyl)thiazole-4-carboxamide]
16 | 35.4 | Cn1ncc(NC(=O)c2nc(-c3cncc(C#N)c3)sc2N)c1N1CC[C@@H](N)[C@H](F)CC1 [Example 444, 5-amino-N-[5-[(4R,5R)-4-amino-5-fluoro-azepan-1-yl]-1-methyl-pyrazol-4-yl]-2-(5-cyano-3-pyridyl)thiazole-4-carboxamide]
17 | 0.446 | Cc1cnc(C)c(-c2nc(C(=O)Nc3cnn(C)c3N3CC[C@@H](N)[C@H](F)CC3)c(N)s2)c1 [Example 445, 5-amino-N-[5-[(4R,5R)-4-amino-5-fluoro-azepan-1-yl]-1-methyl-pyrazol-4-yl]-2-(2,5-dimethyl-3-pyridyl)thiazole-4-carboxamide]
18 | 0.242 | Cn1ncc(NC(=O)c2nc(-c3c(F)cncc3F)sc2N)c1N1CC[C@H](N)[C@@H](F)CC1 [Example 471, 5-amino-N-[5-[(4S,5S)-4-amino-5-fluoro-azepan-1-yl]-1-methyl-pyrazol-4-yl]-2-(3,5-difluoro-4-pyridyl)thiazole-4-carboxamide]

test system: BaF3 parental cells; assay: In vitro cell proliferation, BaF3 parental line + IL3 (CellTiter-Glo); type: cell-based, murine; settings: BaF3 parental cells with IL-3, incubated overnight; read-out: Prolif BaF3 + IL3 (IC50)

Row | SMILES | IC50 [nM]
19 | Cn1ncc(NC(=O)c2nc(-c3c(F)cccc3F)sc2N)c1N1CCC(N)C(O)CC1 (single isomer, unassigned) [Example 333, 5-amino-N-[5-(4-amino-5-hydroxy-azepan-1-yl)-1-methyl-pyrazol-4-yl]-2-(2,6-difluorophenyl)thiazole-4-carboxamide] | > 25000

same assay, conditions: Mus musculus, BaF3, BaF3 parental cells with IL-3, incubated overnight; read-out: Prolif BaF3 + IL3 (IC50)

Row | SMILES | IC50 [nM]
20 | Cn1ncc(NC(=O)c2nc(-c3c(F)cccc3F)sc2N)c1N1CCC(N)C(C(F)F)CC1 (single isomer, unassigned) [Example 511, 5-amino-N-[5-[4-amino-5-(difluoromethyl)azepan-1-yl]-1-methyl-pyrazol-4-yl]-2-(2,6-difluorophenyl)thiazole-4-carboxamide] | 24300
21 | CC(=O)O[C@H]1CCN(c2c(NC(=O)c3nc(-c4c(F)cccc4F)sc3N)cnn2C)CC[C@H]1N [Example 487, [(4S,5R)-5-amino-1-[4-[[5-amino-2-(2,6-difluorophenyl)thiazole-4-carbonyl]amino]-2-methyl-pyrazol-3-yl]azepan-4-yl]acetate] | 20100
22 | Cn1ncc(NC(=O)c2nc(-c3c(F)cccc3F)sc2N)c1N1CC[C@@H]2OC(=O)N[C@]2(C)CC1 [Example 509, 5-amino-2-(2,6-difluorophenyl)-N-(1-methyl-5-((3aR,8aS)-3a-methyl-2-oxotetrahydro-2H-oxazolo[5,4-d]azepin-6(7H,8H,8aH)-yl)-1H-pyrazol-4-yl)thiazole-4-carboxamide] | > 25000

test system: MM1.S (multiple myeloma) cells; assay: In vitro cell proliferation, MM1.S multiple myeloma cells (CellTiter-Glo, ATP); type: cell-based; settings: 72 hours, read-out: Prolif MM1S ATP (EC50)
Procedure: BaF3, a murine interleukin-3 dependent pro-B cell line, parental cells, BaF3 PIM1 cells, BaF3 PIM2 cells, and MM1.S (multiple myeloma) cells were seeded at 2 k/well, 5 k/well, 5 k/well, and 10 k/well respectively, in a 384-well plate, at 45 μL/well. Test compound was added at 5 μL/well. BaF3 cells (parental and transfected) were incubated overnight, while MM1.S cells were incubated for 72 hours at 37° C., 5% CO2. […] IC50/EC50 values for the test compound were calculated.

Row | EC50 [nM] | SMILES
23 | 147 | CCn1ncc(NC(=O)c2nc(-c3c(F)cccc3F)sc2N)c1N1CCC(N)C(OC)CC1 (single isomer, unassigned) [Example 390, 5-amino-N-[5-(4-amino-5-methoxy-azepan-1-yl)-1-ethyl-pyrazol-4-yl]-2-(2,6-difluorophenyl)thiazole-4-carboxamide]
24 | 5700 | Nc1sc(-c2c(F)cccc2F)nc1C(=O)Nc1cnn(CC(F)F)c1N1CCC(N)C(O)CC1 (single isomer, unassigned) [Example 398, 5-amino-N-[5-(4-amino-5-hydroxy-azepan-1-yl)-1-(2,2-difluoroethyl)pyrazol-4-yl]-2-(2,6-difluorophenyl)thiazole-4-carboxamide]
25 | 41.9 | Nc1sc(-c2c(F)cccc2F)nc1C(=O)Nc1cnn(CC(F)F)c1N1CCC(N)C(O)CC1 (single isomer, unassigned) [Example 399, 5-amino-N-[5-(4-amino-5-hydroxy-azepan-1-yl)-1-(2,2-difluoroethyl)pyrazol-4-yl]-2-(2,6-difluorophenyl)thiazole-4-carboxamide]
26 | 182 | CCOC1CCN(c2c(NC(=O)c3nc(-c4c(F)cccc4F)sc3N)cnn2C)CCC1N (stereo not drawn) [Example 385, 5-amino-N-[5-(4-amino-5-ethoxy-azepan-1-yl)-1-methyl-pyrazol-4-yl]-2-(2,6-difluorophenyl)thiazole-4-carboxamide]

same assay, conditions: Homo sapiens, MM1.S, 72 h, read-out: Prolif MM1S ATP (EC50)

Row | EC50 [nM] | SMILES
27 | 118 | CCn1ncc(NC(=O)c2nc(-c3c(F)cccc3F)sc2N)c1N1CCC(N)C(F)CC1 (single isomer, unassigned) [Example 370, 5-amino-N-[5-(4-amino-5-fluoro-azepan-1-yl)-1-ethyl-pyrazol-4-yl]-2-(2,6-difluorophenyl)thiazole-4-carboxamide]
28 | 1300 | Cn1ncc(NC(=O)c2nc(-c3c(F)cccc3F)sc2N)c1N1CCC(O)CC(F)(F)C1 (single isomer, unassigned) [Example 371, 5-amino-N-[5-(3,3-difluoro-5-hydroxy-azepan-1-yl)-1-methyl-pyrazol-4-yl]-2-(2,6-difluorophenyl)thiazole-4-carboxamide]
29 | 3500 | Cn1ncc(NC(=O)c2nc(-c3c(F)cccc3F)sc2N)c1C1CC[C@@H](N)[C@@H](F)CC1 (single isomer, unassigned) [Example 381]
30 | 6400 | Cn1ncc(NC(=O)c2nc(-c3c(F)cccc3F)sc2N)c1N1CCC2NCCOC2CC1 (single isomer, unassigned) [Example 397, N-[5-(3,4,4a,5,6,8,9,9a-octahydro-2H-[1,4]oxazino[2,3-d]azepin-7-yl)-1-methyl-pyrazol-4-yl]-5-amino-2-(2,6-difluorophenyl)thiazole-4-carboxamide]
31 | 68.4 | Cn1ncc(NC(=O)c2nc(-c3c(F)cccc3F)sc2N)c1N1CC[C@@H](N)[C@H](F)CC1 [Example 139, 5-amino-N-(5-((4R,5R)-4-amino-5-fluoroazepan-1-yl)-1-methyl-1H-pyrazol-4-yl)-2-(2,6-difluorophenyl)thiazole-4-carboxamide]
32 | 606 | CO[C@H]1CCN(c2c(NC(=O)c3nc(-c4c(F)cccc4F)sc3N)cnn2C2CC2)CC[C@@H]1N [Example 365, 5-amino-N-(5-((4S,5S)-4-amino-5-methoxyazepan-1-yl)-1-cyclopropyl-1H-pyrazol-4-yl)-2-(2,6-difluorophenyl)thiazole-4-carboxamide]
33 | 5700 | CO[C@@H]1[C@H](N)CCN(c2c(NC(=O)c3nc(-c4c(F)cccc4F)sc3N)cnn2C)CC12CC2 [Example 516, 5-amino-N-(5-((8R,9S)-8-amino-9-methoxy-5-azaspiro[2.6]nonan-5-yl)-1-methyl-1H-pyrazol-4-yl)-2-(2,6-difluorophenyl)thiazole-4-carboxamide]
